ChEMBL document CHEMBL1129502, “Betulinic acid and dihydrobetulinic acid derivatives as potent anti-HIV agents” (J Med Chem, 1996)

How the values were obtained:
[1] = Concentration inhibiting HIV-1 replication by 50% in infected H9 lymphocyte cells; conditions: human, HIV-1-infected H9 lymphocyte cells
[2] = tested on: H9; assay: Inhibitory activity […] in mock infected H9 cells; type: functional, cell-based; conditions: Homo sapiens
[3] = tested on: Human immunodeficiency virus 1; assay: Inhibitory activity against HIV-1-induced syncytia determined by fusion assay; type: functional
[4] = tested on: Human immunodeficiency virus 1; assay: full Inhibitory activity against HIV-1-induced syncytia; type: functional
[5] = tested on: HIV-1 reverse transcriptase (Human immunodeficiency virus 1); assay: Inhibitory activity against HIV-RT; no inhibition

`C=C(C)[C@@H]1CC[C@]2(C(=O)O)CC[C@]3(C)[C@H](CC[C@@H]4[C@@]5(C)CC[C@H](OC(=O)C(C)(C)CC(=O)O)C(C)(C)[C@@H]5CC[C@]43C)[C@@H]12` gave an EC50 [1] of 2.7 µM, an IC50 [2] of 15.9 µM and an IC100 [3] of 34 µM.
For `CC(C)[C@@H]1CC[C@]2(C(=O)O)CC[C@]3(C)[C@H](CC[C@@H]4[C@@]5(C)CC[C@H](OC(=O)CC(C)(C)CC(=O)O)C(C)(C)[C@@H]5CC[C@]43C)[C@@H]12`, the EC50 [1] was 5.7 µM, the IC50 [2] was 5.8 µM and the IC100 [3] was 33 µM.
For `C=C(C)[C@@H]1CC[C@]2(C(=O)O)CC[C@]3(C)[C@H](CC[C@@H]4[C@@]5(C)CC[C@H](OC(=O)CC(C)(C)CC(=O)O)C(C)(C)[C@@H]5CC[C@]43C)[C@@H]12`, the EC50 [1] was 2.3 µM, the IC50 [2] was 4.5 µM and the IC100 [3] was 50 µM.
Work on `CC(C)[C@@H]1CC[C@]2(C(=O)O)CC[C@]3(C)[C@H](CC[C@@H]4[C@@]5(C)CC[C@H](OC(=O)COCC(=O)O)C(C)(C)[C@@H]5CC[C@]43C)[C@@H]12` yielded an EC50 [1] of 5.6 µM, an IC50 [2] of 13.1 µM and an IC100 [3] of 70 µM.
`CC(C)[C@@H]1CC[C@]2(C(=O)O)CC[C@]3(C)[C@H](CC[C@@H]4[C@@]5(C)CC[C@H](OC(=O)C(C)(C)CC(=O)O)C(C)(C)[C@@H]5CC[C@]43C)[C@@H]12` gave an EC50 [1] of 0.56 µM and an IC50 [2] of 7.7 µM.
Compound `CC(C)[C@@H]1CC[C@]2(C(=O)O)CC[C@]3(C)[C@H](CC[C@@H]4[C@@]5(C)CC[C@H](O)C(C)(C)[C@@H]5CC[C@]43C)[C@@H]12` [DIHYDROBETULINIC ACID] has an IC100 [4] greater than 218 µM, an EC50 [1] of 0.9 µM and an IC50 [2] of 12.6 µM.
For `C=C(C)[C@@H]1CC[C@]2(C(=O)O)CC[C@]3(C)[C@H](CC[C@@H]4[C@@]5(C)CC[C@H](OC(=O)CC(C)(C)C(=O)O)C(C)(C)[C@@H]5CC[C@]43C)[C@@H]12` [BEVIRIMAT], the EC50 [1] was less than 3.5 µM, the IC50 [2] was 7 µM and the IC100 [3] was 34 µM.
Work on `C=C(C)[C@@H]1CC[C@]2(C(=O)O)CC[C@]3(C)[C@H](CC[C@@H]4[C@@]5(C)CC[C@H](O)C(C)(C)[C@@H]5CC[C@]43C)[C@@H]12` [BETULINIC ACID] yielded an EC50 [1] of 1.4 µM, an IC50 [2] of 13 µM and an IC100 [3] greater than 219 µM.
In the case of `C=C(C)[C@@H]1CC[C@]2(C(=O)NCCCCCCCC(=O)N[C@@H](CC(C)C)[C@@H](O)CC(=O)O)CC[C@]3(C)[C@H](CC[C@@H]4[C@@]5(C)CC[C@H](O)C(C)(C)[C@@H]5CC[C@]43C)[C@@H]12`, the IC100 [4] is reported as 3 µM, the EC50 [1] is reported as 0.03 µM and the IC50 [2] is reported as 2.7 µM. The IC50 [5] was “Not Active”.
For `C=C(C)[C@@H]1CC[C@]2(C(=O)O)CC[C@]3(C)[C@H](CC[C@@H]4[C@@]5(C)CC[C@H](OC(=O)COCC(=O)O)C(C)(C)[C@@H]5CC[C@]43C)[C@@H]12`, the EC50 [1] was 0.01 µM, the IC50 [2] was 11.7 µM and the IC100 [3] was 70 µM.
For `CC(C)[C@@H]1CC[C@]2(C(=O)O)CC[C@]3(C)[C@H](CC[C@@H]4[C@@]5(C)CC[C@H](OC(=O)CC(C)(C)C(=O)O)C(C)(C)[C@@H]5CC[C@]43C)[C@@H]12`, the EC50 [1] was less than 3.5 µM, the IC50 [2] was 4.9 µM and the IC100 [3] was 34 µM.
